Key:
PKG-1α = PKG-1α nitration (IP, 3-NT immunoblot) in transfected HEK-293T cells; format: cell-based, human; conditions: SIN-1 500 μM, 30 min
Description: Cells were homogenized in 3× weight/volume of IP buffer (25 mM Hepes, pH 7.5, 150 mM NaCl, 1% NP-40, 10 mM MgCl2, 1 mM EDTA, 2% glycerol, supplemented with protease inhibitor). The homogenates were then centrifuged at 20,000 g at 4° C. for 20 min, the supernatant was collected, and the protein concentration was quantified by the Bio-Rad DC Protein Assay. To 1000 μg of total protein, 4 μg of antibody against PKG-1α was added; the volume was brought to 1 ml with IP buffer, and the mixture was incubated at 4° C. overnight. To precipitate the bound protein, 30 μl of protein G plus agarose suspension (EMD biosciences, Inc., San Diego, Calif.) was added, and the samples were incubated for 2 h at 4° C. To collect the bead-bound antibody, the samples were then centrifuged at 2000 g for 5 min at 4° C., the supernatant was removed, and the beads were washed 3× with 500 μl of IP buffer. To the samples, 30 μl of 2× Laemmli buffer was added, and the samples were boiled for 5 min and then resolved using 4-20% Tris-SDS-Hepes PAGE. The membrane was then probed for 3-nitrotyrosine (1:100 dilution), as described above. The IP efficiency was normalized by re-probing for PKG-1α (1:500).
To determine the role of tyrosine 247 and tyrosine 425 in mediating the nitration dependent inhibition of PKG-1α kinase activity, Y247F- and Y425F-PKG-1α mutants were generated and expressed in HEK-293T cells. HEK-293T cells were transiently transfected with expression plasmids containing WT-, Y247F-, or Y425F-PKG-1α for 48 h. […] Protein extracts were immunoprecipitated using an antibody raised against PKG-1α and the level of nitrated PKG-1α determined by probing the membranes with an antiserum raised against 3-NT. The blots were then stripped and re-probed for PKG-1α to normalize for the efficiency of the immunoprecipitation.

[1] = tested on: pulmonary artery smooth muscle cells (PASMC); experiment: PASMC cellular metabolism (alamarBlue assay); format: cell-based, lamb; conditions: WT-PKG-1α transfected PASMC; SIN-1 500 μM, 48 h
Description: This was determined via the alamarBlue assay (AbD Serotec, Oxford, UK). The assay is based on the reducing ability of metabolically active cells to convert the active reagent, resazurin, into a fluorescent and colorimetric indicator, resorufin. When added to cell cultures, the oxidized, resazurin enters the cytosol and is converted to the reduced, resorufin in the mitochondria by accepting electrons from NADH, NADPH, FADH2, FMNH2, as well as from the cytochromes. The non-toxic and cell permeable nature of alamarBlue permits the long-term exposure of cells. PASMC were grown on a 10 cm dish to 75% confluence, transfected with WT-PKG-1α or Y247F-PKG-1α cDNA, and incubated at 37° C. for 20 h. The cells were trypsinized and seeded onto a 24-well plate at a density of 20,000 cells per well and grown for an additional 4 h in serum and phenol free DMEM growth medium containing 1% FBS and antibiotics. The cells were then treated with or without SIN-1 (500 μM, 48 h) in the presence of 10% well volume of alamarBlue dye. The color change of the dye was determined at an excitation wavelength of 560 nm and an emission wavelength of 590 nm in a Fluoroskan Ascent plate reader. […] Cellular metabolism was expressed as follows: […]

“3-morpholinosydnonimine N-ethylcarbamide [SIN-1]” was tested. Which “nitration of PKG-1α (3-NT/PKG-1α)” value (PKG-1α; HEK-293T expressing WT-PKG-1α) did it give?
Its value is “significantly increased”.

And the “nitration of PKG-1α (3-NT/PKG-1α)” value (PKG-1α; HEK-293T expressing Y247F-PKG-1α)?
The value was “no significant increases”.

And the “nitration of PKG-1α (3-NT/PKG-1α)” value (PKG-1α; HEK-293T expressing Y425F-PKG-1α)?
Its value is “no significant increases”.

What about the metabolism [1] of the same substance?
Its metabolism is “stimulated”.
